ChEMBL document CHEMBL1201862, “PubChem BioAssay data set” (2004)
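A five-concentration, 48-hour dose response in 96-well plates underlies each endpoint, interpolated linearly between surrounding concentrations. Here, GI50 denotes the concentration required for 50% inhibition of growth.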 The source made the active and inactive calls. Cut-off read from the data, not from the text of the source: active = GI50 up to about 1.1 µM and inactive = higher.

Columns and labels:
Experiment in all cases: DTP human tumour cell line panel, 48 h
M14 = test system: M14
HCC 2998 = test system: HCC 2998
HOP-92 = test system: HOP-92
SK-MEL-5 = test system: SK-MEL-5
NCI-H460 = test system: NCI-H460
SNB-19 = test system: SNB-19
SK-OV-3 = test system: SK-OV-3
LOX IMVI = test system: LOX IMVI
OVCAR-4 = test system: OVCAR-4
HT-29 = test system: HT-29
CCRF-CEM = test system: CCRF-CEM
U-251 = test system: U-251
Malme-3M = test system: Malme-3M
A549 = test system: A549
786-0 = test system: 786-0
SW-620 = test system: SW-620
NCI-H226 = test system: NCI-H226
RPMI-8226 = test system: RPMI-8226
SR = test system: SR

O=C(Cc1nc2ccccc2c(=O)n1-c1ccccc1Cl)c1ccncc1
GI50 (M14): > 100 µM (inactive) | GI50 (HCC 2998): > 100 µM (inactive) | GI50 (HOP-92): > 100 µM (inactive) | GI50 (SK-MEL-5): > 100 µM (inactive) | GI50 (NCI-H460): > 100 µM (inactive) | GI50 (SNB-19): > 100 µM (inactive) | GI50 (SK-OV-3): > 100 µM (inactive) | GI50 (LOX IMVI): > 100 µM (inactive) | GI50 (OVCAR-4): 68.2 µM (inactive) | GI50 (HT-29): > 100 µM (inactive) | GI50 (CCRF-CEM): > 100 µM (inactive) | GI50 (U-251): > 100 µM (inactive) | GI50 (Malme-3M): > 100 µM (inactive) | GI50 (A549): > 100 µM (inactive) | GI50 (786-0): > 100 µM (inactive) | GI50 (SW-620): > 100 µM (inactive) | GI50 (NCI-H226): > 100 µM (inactive)

Cc1ccc(S(=O)(=O)C2c3nc4ccccc4cc3-c3nc4ccccc4nc32)cc1 (stereo unspecified)
GI50 (RPMI-8226): > 100 µM (inactive) | GI50 (M14): > 100 µM (inactive) | GI50 (HCC 2998): > 100 µM (inactive) | GI50 (HOP-92): > 100 µM (inactive) | GI50 (SK-MEL-5): 51.8 µM (inactive) | GI50 (NCI-H460): > 10 µM (inactive) | GI50 (SNB-19): > 100 µM (inactive) | GI50 (SK-OV-3): 0.693 µM (active) | GI50 (LOX IMVI): > 100 µM (inactive) | GI50 (OVCAR-4): > 100 µM (inactive) | GI50 (CCRF-CEM): > 100 µM (inactive) | GI50 (U-251): > 100 µM (inactive) | GI50 (Malme-3M): > 100 µM (inactive) | GI50 (A549): > 100 µM (inactive) | GI50 (SR): > 100 µM (inactive) | GI50 (786-0): > 100 µM (inactive) | GI50 (SW-620): > 100 µM (inactive)

Nc1c(S(=O)(=O)c2ccc(Cl)cc2)c2nc3ccccc3nc2n2ccnc12
GI50 (RPMI-8226): > 100 µM (inactive) | GI50 (M14): > 100 µM (inactive) | GI50 (HCC 2998): > 100 µM (inactive) | GI50 (HOP-92): > 100 µM (inactive) | GI50 (SK-MEL-5): > 100 µM (inactive) | GI50 (NCI-H460): 63.4 µM (inactive) | GI50 (SNB-19): 48.5 µM (inactive) | GI50 (SK-OV-3): 38.4 µM (inactive) | GI50 (OVCAR-4): 14.5 µM (inactive) | GI50 (HT-29): > 100 µM (inactive) | GI50 (CCRF-CEM): 39.4 µM (inactive) | GI50 (U-251): 61.8 µM (inactive) | GI50 (Malme-3M): > 100 µM (inactive) | GI50 (A549): 85.9 µM (inactive) | GI50 (786-0): 36.2 µM (inactive) | GI50 (NCI-H226): 18.3 µM (inactive)

CC1OC(OC2C(OC(=O)[C@]34CCC(C)(C)CC3C3=CCC5[C@@]6(C)C[C@H](O)[C@H](OC7OC(COC8OC(CO)C(O)C(O)C8O)C(O)C(O)C7O)[C@@](C)(C(=O)O)C6CC[C@@]5(C)C3(C)CC4)OCC(O)C2O)C(O)C(O)C1OC1OCC(O)C(O)C1O (stereo partly specified)
GI50 (RPMI-8226): > 100 µM (inactive) | GI50 (HCC 2998): > 100 µM (inactive) | GI50 (HOP-92): > 100 µM (inactive) | GI50 (SK-MEL-5): > 100 µM (inactive) | GI50 (NCI-H460): > 100 µM (inactive) | GI50 (SNB-19): > 100 µM (inactive) | GI50 (SK-OV-3): > 100 µM (inactive) | GI50 (LOX IMVI): > 100 µM (inactive) | GI50 (HT-29): > 100 µM (inactive) | GI50 (CCRF-CEM): > 100 µM (inactive) | GI50 (U-251): > 100 µM (inactive) | GI50 (Malme-3M): > 100 µM (inactive) | GI50 (A549): > 100 µM (inactive) | GI50 (786-0): > 100 µM (inactive) | GI50 (SW-620): > 100 µM (inactive) | GI50 (NCI-H226): > 100 µM (inactive)

O=[N+]([O-])c1cc(I)cc(/C=N/NS(=O)(=O)c2ccc(F)cc2)c1O
GI50 (RPMI-8226): 22.1 µM (inactive) | GI50 (M14): 27.5 µM (inactive) | GI50 (HCC 2998): 33 µM (inactive) | GI50 (HOP-92): 18.3 µM (inactive) | GI50 (SK-MEL-5): 22.5 µM (inactive) | GI50 (NCI-H460): 21.9 µM (inactive) | GI50 (SNB-19): 31 µM (inactive) | GI50 (SK-OV-3): 27.4 µM (inactive) | GI50 (LOX IMVI): 27 µM (inactive) | GI50 (OVCAR-4): 38.5 µM (inactive) | GI50 (HT-29): 18.7 µM (inactive) | GI50 (CCRF-CEM): 22 µM (inactive) | GI50 (U-251): 22.4 µM (inactive) | GI50 (Malme-3M): 21.2 µM (inactive) | GI50 (A549): 35.5 µM (inactive) | GI50 (SR): 22.3 µM (inactive) | GI50 (786-0): 28.4 µM (inactive) | GI50 (SW-620): 32.4 µM (inactive)

CCC1C(=O)OCc2c1cc1n(c2=O)CCC12OCCO2 (stereo unspecified)
GI50 (RPMI-8226): > 100 µM (inactive) | GI50 (M14): > 100 µM (inactive) | GI50 (HCC 2998): 63.8 µM (inactive) | GI50 (HOP-92): > 100 µM (inactive) | GI50 (SK-MEL-5): > 100 µM (inactive) | GI50 (NCI-H460): > 100 µM (inactive) | GI50 (SNB-19): > 100 µM (inactive) | GI50 (SK-OV-3): > 100 µM (inactive) | GI50 (LOX IMVI): > 100 µM (inactive) | GI50 (OVCAR-4): > 100 µM (inactive) | GI50 (HT-29): > 100 µM (inactive) | GI50 (CCRF-CEM): > 100 µM (inactive) | GI50 (U-251): > 100 µM (inactive) | GI50 (A549): > 100 µM (inactive) | GI50 (SR): > 100 µM (inactive) | GI50 (786-0): > 100 µM (inactive) | GI50 (SW-620): > 100 µM (inactive) | GI50 (NCI-H226): > 100 µM (inactive)

Nc1nc(N)c2cc(Sc3cccc(C(F)(F)F)c3)ccc2n1 [WR-159412]
GI50 (RPMI-8226): 1.93 µM (inactive) | GI50 (M14): 1.14 µM (inactive) | GI50 (HCC 2998): 1.39 µM (inactive) | GI50 (HOP-92): 2.94 µM (inactive) | GI50 (SK-MEL-5): 3.71 µM (inactive) | GI50 (NCI-H460): 0.466 µM (active) | GI50 (SNB-19): 4.81 µM (inactive) | GI50 (SK-OV-3): 9.08 µM (inactive) | GI50 (OVCAR-4): 6.78 µM (inactive) | GI50 (HT-29): 3.62 µM (inactive) | GI50 (CCRF-CEM): 0.53 µM (active) | GI50 (U-251): 0.771 µM (active) | GI50 (Malme-3M): 1.02 µM (active) | GI50 (A549): 0.367 µM (active) | GI50 (SR): 0.843 µM (active) | GI50 (786-0): 0.624 µM (active)

O=[N+]([O-])c1ccc(-c2csc(=[N+]3CCCCC3)s2)cc1
GI50 (RPMI-8226): 20.2 µM (inactive) | GI50 (M14): 36.1 µM (inactive) | GI50 (HCC 2998): 21.1 µM (inactive) | GI50 (HOP-92): 26.1 µM (inactive) | GI50 (SK-MEL-5): 5.85 µM (inactive) | GI50 (NCI-H460): 13.6 µM (inactive) | GI50 (SNB-19): 4.88 µM (inactive) | GI50 (SK-OV-3): 37.7 µM (inactive) | GI50 (LOX IMVI): 26.1 µM (inactive) | GI50 (OVCAR-4): 18.5 µM (inactive) | GI50 (HT-29): 6.04 µM (inactive) | GI50 (CCRF-CEM): 4.91 µM (inactive) | GI50 (U-251): 2.54 µM (inactive) | GI50 (Malme-3M): 12.1 µM (inactive) | GI50 (A549): 1.93 µM (inactive) | GI50 (SR): 11.1 µM (inactive) | GI50 (786-0): 34.4 µM (inactive) | GI50 (SW-620): 13.2 µM (inactive)
